{
  "source": "BindingDB's records for doi:10.7270/Q22Z140X",
  "about": "(Burnham Center For Chemical Genomics, 2010)",
  "data": [
    {"target": "T1, NACHT, LRR and PYD domains-containing protein 1 (Homo sapiens, UniProt Q9C000)", "T1 sequence (Q9C000 whole entry)": "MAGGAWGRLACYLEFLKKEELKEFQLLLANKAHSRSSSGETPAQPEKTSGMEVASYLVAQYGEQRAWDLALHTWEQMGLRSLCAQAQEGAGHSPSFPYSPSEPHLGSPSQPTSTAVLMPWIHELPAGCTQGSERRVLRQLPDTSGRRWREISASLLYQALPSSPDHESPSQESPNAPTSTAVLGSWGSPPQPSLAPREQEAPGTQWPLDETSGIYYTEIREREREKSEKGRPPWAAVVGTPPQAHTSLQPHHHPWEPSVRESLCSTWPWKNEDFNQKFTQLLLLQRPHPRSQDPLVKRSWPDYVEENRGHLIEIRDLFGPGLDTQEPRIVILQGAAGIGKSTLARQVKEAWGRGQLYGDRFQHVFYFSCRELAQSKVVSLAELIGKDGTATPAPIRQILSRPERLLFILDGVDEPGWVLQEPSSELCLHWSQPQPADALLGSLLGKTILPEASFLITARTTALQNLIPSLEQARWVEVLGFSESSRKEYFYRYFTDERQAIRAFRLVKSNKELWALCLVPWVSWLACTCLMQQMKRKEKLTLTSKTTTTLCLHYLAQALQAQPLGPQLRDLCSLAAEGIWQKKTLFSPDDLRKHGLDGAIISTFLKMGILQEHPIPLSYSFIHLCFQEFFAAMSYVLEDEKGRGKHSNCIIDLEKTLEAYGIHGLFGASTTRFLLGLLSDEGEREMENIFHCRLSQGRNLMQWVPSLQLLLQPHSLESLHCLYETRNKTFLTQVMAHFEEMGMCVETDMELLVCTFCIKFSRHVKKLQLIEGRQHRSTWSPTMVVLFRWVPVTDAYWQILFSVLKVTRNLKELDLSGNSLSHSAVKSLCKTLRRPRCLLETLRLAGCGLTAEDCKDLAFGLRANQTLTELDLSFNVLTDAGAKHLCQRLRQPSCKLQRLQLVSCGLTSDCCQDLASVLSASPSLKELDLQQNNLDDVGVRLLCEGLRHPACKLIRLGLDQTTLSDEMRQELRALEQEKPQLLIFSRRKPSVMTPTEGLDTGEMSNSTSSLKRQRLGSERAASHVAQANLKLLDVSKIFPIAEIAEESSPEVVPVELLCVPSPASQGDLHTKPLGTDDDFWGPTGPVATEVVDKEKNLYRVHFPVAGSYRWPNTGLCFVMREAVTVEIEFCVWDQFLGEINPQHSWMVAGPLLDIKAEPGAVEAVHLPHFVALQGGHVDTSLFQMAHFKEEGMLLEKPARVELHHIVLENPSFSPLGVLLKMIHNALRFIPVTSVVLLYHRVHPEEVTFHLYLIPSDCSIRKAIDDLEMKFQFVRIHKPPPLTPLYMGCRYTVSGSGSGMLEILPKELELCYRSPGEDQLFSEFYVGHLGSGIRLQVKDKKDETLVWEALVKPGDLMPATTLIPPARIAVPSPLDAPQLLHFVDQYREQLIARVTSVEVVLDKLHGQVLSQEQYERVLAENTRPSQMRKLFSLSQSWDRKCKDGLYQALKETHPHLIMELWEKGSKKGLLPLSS", "assay": "NALP1 inhibitors in yeast, dose response, luminescent (AID 488860)", "units": {"IC50": "µM"}, "values": [
      {"smiles": "Cc1ccc(-n2c(O)cc(Sc3ccccc3C(=O)O)c2O)cc1", "IC50": 34.4},
      {"smiles": "Oc1cc(Sc2nnnn2-c2ccccc2)c(O)n1-c1cccc(Cl)c1", "IC50": 5.83},
      {"smiles": "COc1ccccc1-n1c(O)c2c(c1O)CC(c1ccccc1)CC2", "note": "(stereo not drawn)", "IC50": "> 100"}
    ]}
  ]
}
